According to patent publication US20210220300A1 (Strongbridge Dublin Limited, priority 2019, published 2021):
Where two headings read alike, the source gives them in different places.

Columns and labels:
[1] = molecular target: MATE2-K (Homo sapiens, UniProt Q86VL8); conditions: pH 8.5
Method: (§1) [^14C]-Metformin (1 mM) was provided as a solid and was prepared in Hank's balanced salt solution (HBSS).
(§2) Cells were plated onto standard 24-well tissue culture plates in cell culture medium 1 to 3 days before the experiment. MATE1 and MATE2-K and control cells were incubated with butyric acid (10 mM) for 24 hours before the experiment to inhibit suppression of the transporter.

[2] = molecular target: T1, MATE1 (Homo sapiens, UniProt Q96FL8); conditions: pH 8.5
T1 sequence (Q96FL8 1-570): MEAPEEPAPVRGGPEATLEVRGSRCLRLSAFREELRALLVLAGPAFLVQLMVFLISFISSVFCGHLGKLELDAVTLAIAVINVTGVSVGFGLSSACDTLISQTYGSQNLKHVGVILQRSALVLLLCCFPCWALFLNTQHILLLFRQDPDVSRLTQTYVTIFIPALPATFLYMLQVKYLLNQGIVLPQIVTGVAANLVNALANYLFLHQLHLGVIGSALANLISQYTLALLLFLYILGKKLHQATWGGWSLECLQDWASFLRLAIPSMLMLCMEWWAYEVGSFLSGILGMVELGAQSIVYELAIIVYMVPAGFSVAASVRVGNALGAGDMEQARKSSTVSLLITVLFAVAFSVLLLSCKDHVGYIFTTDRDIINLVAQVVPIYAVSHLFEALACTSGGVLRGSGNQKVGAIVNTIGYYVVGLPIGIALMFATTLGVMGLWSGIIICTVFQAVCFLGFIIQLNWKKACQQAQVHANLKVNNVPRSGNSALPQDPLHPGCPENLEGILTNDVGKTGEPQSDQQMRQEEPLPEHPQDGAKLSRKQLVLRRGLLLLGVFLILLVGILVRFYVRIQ
Method: as §1, §2

[3] = molecular target: T2, OCT1 (Homo sapiens, UniProt O15245); conditions: for Uptake (Average ± SD), Control / Uptake (Average ± SD), OCT1 / Background corrected uptake rate: human, pH 7.4
T2 sequence (O15245 1-554): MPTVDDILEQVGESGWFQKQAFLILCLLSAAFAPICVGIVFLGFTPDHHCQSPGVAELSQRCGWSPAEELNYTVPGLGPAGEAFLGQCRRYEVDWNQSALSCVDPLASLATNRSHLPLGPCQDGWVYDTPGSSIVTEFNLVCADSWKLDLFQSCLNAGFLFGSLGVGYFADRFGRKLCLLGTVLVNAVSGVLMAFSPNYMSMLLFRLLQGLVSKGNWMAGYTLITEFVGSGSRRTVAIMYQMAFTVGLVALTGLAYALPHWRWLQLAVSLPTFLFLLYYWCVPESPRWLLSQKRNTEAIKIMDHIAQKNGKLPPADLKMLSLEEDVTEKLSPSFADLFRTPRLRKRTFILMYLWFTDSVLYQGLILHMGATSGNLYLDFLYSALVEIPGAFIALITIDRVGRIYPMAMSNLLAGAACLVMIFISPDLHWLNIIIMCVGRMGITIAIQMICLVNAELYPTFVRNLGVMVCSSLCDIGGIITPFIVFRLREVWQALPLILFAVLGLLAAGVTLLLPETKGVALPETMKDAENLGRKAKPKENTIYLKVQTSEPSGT
Method: as §1, §2

[4] = cited from earlier work
[5] = system: BCRP; experiment: BCRP inhibition: bidirectional transport of prazosin across MDCKII BCRP and control cells; conditions: for % control: corrected efflux ratio, prazosin 1 μM
Source text: MDCKII P-gp, MDCKII BCRP and control MDCKII cells were purchased from the Netherlands Cancer Institute.

[6] = molecular target: T3, P-gp (Homo sapiens, UniProt P08183)
T3 sequence (P08183 whole entry): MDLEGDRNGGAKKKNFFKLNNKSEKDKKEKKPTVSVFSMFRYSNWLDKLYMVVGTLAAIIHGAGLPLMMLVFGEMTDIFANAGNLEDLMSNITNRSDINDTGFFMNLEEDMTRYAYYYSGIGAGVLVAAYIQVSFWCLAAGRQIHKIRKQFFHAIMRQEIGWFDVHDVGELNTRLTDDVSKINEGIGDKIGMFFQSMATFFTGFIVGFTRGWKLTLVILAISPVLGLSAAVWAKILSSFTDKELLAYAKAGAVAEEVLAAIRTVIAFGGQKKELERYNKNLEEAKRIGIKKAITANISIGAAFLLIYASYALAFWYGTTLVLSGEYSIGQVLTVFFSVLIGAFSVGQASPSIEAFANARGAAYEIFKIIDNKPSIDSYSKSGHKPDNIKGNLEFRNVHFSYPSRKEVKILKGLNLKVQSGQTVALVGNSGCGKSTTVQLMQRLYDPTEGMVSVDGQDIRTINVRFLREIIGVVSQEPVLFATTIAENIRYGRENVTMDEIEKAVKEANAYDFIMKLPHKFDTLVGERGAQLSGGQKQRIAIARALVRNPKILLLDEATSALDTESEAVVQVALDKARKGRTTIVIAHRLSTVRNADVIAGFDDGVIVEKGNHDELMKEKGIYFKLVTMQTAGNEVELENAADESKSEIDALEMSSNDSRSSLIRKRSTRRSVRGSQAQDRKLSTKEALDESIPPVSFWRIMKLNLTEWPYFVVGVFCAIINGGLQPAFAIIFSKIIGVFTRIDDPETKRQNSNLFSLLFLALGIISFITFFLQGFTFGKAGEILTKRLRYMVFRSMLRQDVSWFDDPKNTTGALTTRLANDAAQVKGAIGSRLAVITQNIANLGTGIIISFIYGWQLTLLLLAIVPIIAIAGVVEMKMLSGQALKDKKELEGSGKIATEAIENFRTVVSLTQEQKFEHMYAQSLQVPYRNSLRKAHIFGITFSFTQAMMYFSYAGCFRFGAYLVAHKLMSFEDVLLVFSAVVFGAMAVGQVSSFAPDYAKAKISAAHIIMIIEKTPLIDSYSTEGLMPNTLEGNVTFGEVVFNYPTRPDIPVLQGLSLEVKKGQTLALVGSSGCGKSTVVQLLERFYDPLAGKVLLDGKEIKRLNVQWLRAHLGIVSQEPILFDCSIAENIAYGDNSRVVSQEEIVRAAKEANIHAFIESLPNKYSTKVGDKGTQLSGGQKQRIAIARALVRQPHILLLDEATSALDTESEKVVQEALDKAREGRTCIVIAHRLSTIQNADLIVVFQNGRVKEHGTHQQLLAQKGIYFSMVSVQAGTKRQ

[7] = cited from earlier work; remark: listed apart in the source
[8] = molecular target: T3, P-gp; experiment: P-gp inhibition: bidirectional transport of digoxin across Caco-2 cells

Chain of MATE2-K (Q86VL8 1-566 isoform Q86VL8-3): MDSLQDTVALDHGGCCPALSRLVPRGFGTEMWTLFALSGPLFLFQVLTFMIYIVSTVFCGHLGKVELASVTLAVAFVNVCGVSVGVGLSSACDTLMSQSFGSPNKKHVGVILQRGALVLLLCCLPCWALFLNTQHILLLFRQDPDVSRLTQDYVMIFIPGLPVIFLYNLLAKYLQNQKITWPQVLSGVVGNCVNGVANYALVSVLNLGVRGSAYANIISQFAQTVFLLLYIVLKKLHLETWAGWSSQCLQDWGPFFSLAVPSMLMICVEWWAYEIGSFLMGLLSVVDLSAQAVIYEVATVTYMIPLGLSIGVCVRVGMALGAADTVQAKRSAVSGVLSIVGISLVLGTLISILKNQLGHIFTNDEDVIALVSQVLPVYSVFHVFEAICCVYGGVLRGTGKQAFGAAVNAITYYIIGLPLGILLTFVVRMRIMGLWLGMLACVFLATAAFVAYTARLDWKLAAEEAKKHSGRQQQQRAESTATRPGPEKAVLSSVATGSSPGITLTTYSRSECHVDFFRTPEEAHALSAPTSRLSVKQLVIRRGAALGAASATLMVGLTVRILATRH

In the case of `CN/C(=N/CCSCc1nc[nH]c1C)NC#N` [Cimetidine], the “Uptake (Average ± SD), Control” value ([1]; 300 μM) is reported as 7.34 ± 0.20 pmol/mg protein, the “Uptake (Average ± SD), MATE2-K” value ([1]; 300 μM) is reported as 32.3 ± 11.7 pmol/mg protein and the “Uptake (Average ± SD), Control” value ([2]; 10 μM) is reported as 5.20 ± 0.63 pmol/mg protein. The “Uptake (Average ± SD), MATE1” value ([2]; 10 μM) was 85.2 ± 7.8 pmol/mg protein.

In the case of `NS(=O)(=O)c1cc(Cl)c(Cl)c(S(N)(=O)=O)c1` [Dichlorphenamide, 4,5-dichloro-1,3-benzenedisulfonamide], the “Uptake (Average ± SD), Control” value ([1]; 1 μM) is reported as 9.21 ± 0.93 pmol/mg protein, the “Uptake (Average ± SD), MATE2-K” value ([1]; 1 μM) is reported as 149 ± 29 pmol/mg protein and the “Uptake (Average ± SD), Control” value ([1]; 3 μM) is reported as 9.44 ± 2.27 pmol/mg protein. The “Uptake (Average ± SD), MATE2-K” value ([1]; 3 μM) was 159 ± 19 pmol/mg protein, the “Uptake (Average ± SD), Control” value ([1]; 10 μM) was 8.28 ± 1.46 pmol/mg protein and the “Uptake (Average ± SD), MATE2-K” value ([1]; 10 μM) was 113 ± 8 pmol/mg protein. The “Uptake (Average ± SD), Control” value ([1]; 30 μM) was 8.51 ± 1.05 pmol/mg protein, the “Uptake (Average ± SD), MATE2-K” value ([1]; 30 μM) was 124 ± 36 pmol/mg protein and the “Uptake (Average ± SD), Control” value ([1]; 100 μM) was 9.21 ± 1.52 pmol/mg protein. For the same compound, the “Uptake (Average ± SD), MATE2-K” value ([1]; 100 μM) was 137 ± 15 pmol/mg protein, the “Uptake (Average ± SD), Control” value ([1]; 300 μM) was 8.86 ± 0.93 pmol/mg protein and the “Uptake (Average ± SD), MATE2-K” value ([1]; 300 μM) was 166 ± 16 pmol/mg protein. For the same compound, the “Uptake (Average ± SD), Control” value ([1]; 1000 μM) was 5.13 ± 0.40 pmol/mg protein, the “Uptake (Average ± SD), MATE2-K” value ([1]; 1000 μM) was 106 ± 29 pmol/mg protein and the “% control” value ([3]; [14C]-tetraethylammonium bromide 5 μM, inhibitor 10 μM) was 90.6%. The “Uptake (Average ± SD), Control” value ([3]; 1 μM) was 4.28 ± 1.48 pmol/mg protein, the “Uptake (Average ± SD), OCT1” value ([3]; 1 μM) was 121 ± 11 pmol/mg protein and the “Uptake (Average ± SD), Control” value ([3]; 3 μM) was 4.44 ± 1.97 pmol/mg protein. The “Uptake (Average ± SD), OCT1” value ([3]; 3 μM) was 125 ± 5 pmol/mg protein, the “Uptake (Average ± SD), Control” value ([3]; 10 μM) was 4.28 ± 0.92 pmol/mg protein and the “Uptake (Average ± SD), OCT1” value ([3]; 10 μM) was 111 ± 4 pmol/mg protein. For the same compound, the “Uptake (Average ± SD), Control” value ([3]; 30 μM) was 3.88 ± 0.48 pmol/mg protein, the “Uptake (Average ± SD), OCT1” value ([3]; 30 μM) was 122 ± 14 pmol/mg protein and the “Uptake (Average ± SD), Control” value ([3]; 100 μM) was 4.12 ± 0.73 pmol/mg protein. For the same compound, the “Uptake (Average ± SD), OCT1” value ([3]; 100 μM) was 128 ± 6 pmol/mg protein, the “Background corrected uptake rate” value ([3]; 300 μM) was 8.40 pmol/mg/min and the “Uptake (Average ± SD), Control” value ([3]; 300 μM) was 3.88 ± 1.11 pmol/mg protein. The “Uptake (Average ± SD), OCT1” value ([3]; 300 μM) was 130 ± 10 pmol/mg protein, the “Background corrected uptake rate” value ([3]; 1000 μM) was 5.00 pmol/mg/min and the “Uptake (Average ± SD), Control” value ([3]; 1000 μM) was 2.99 ± 1.46 pmol/mg protein. For the same compound, the “Uptake (Average ± SD), OCT1” value ([3]; 1000 μM) was 77.9 ± 3.0 pmol/mg protein, the “Uptake (Average ± SD), Control” value ([2]; 1 μM) was 6.66 ± 1.31 pmol/mg protein and the “Uptake (Average ± SD), MATE1” value ([2]; 1 μM) was 436 ± 23 pmol/mg protein. For the same compound, the “Uptake (Average ± SD), Control” value ([2]; 3 μM) was 6.75 ± 1.65 pmol/mg protein, the “Uptake (Average ± SD), MATE1” value ([2]; 3 μM) was 401 ± 7 pmol/mg protein and the “Uptake (Average ± SD), Control” value ([2]; 10 μM) was 7.43 ± 1.34 pmol/mg protein. The “Uptake (Average ± SD), MATE1” value ([2]; 10 μM) was 406 ± 12 pmol/mg protein, the “Uptake (Average ± SD), Control” value ([2]; 30 μM) was 6.79 ± 0.89 pmol/mg protein and the “Uptake (Average ± SD), MATE1” value ([2]; 30 μM) was 432 ± 10 pmol/mg protein. For the same compound, the “Uptake (Average ± SD), Control” value ([2]; 100 μM) was 7.52 ± 0.96 pmol/mg protein, the “Uptake (Average ± SD), MATE1” value ([2]; 100 μM) was 421 ± 17 pmol/mg protein and the “Uptake (Average ± SD), Control” value ([2]; 300 μM) was 5.56 ± 0.16 pmol/mg protein. The “Uptake (Average ± SD), MATE1” value ([2]; 300 μM) was 398 ± 17 pmol/mg protein, the “Uptake (Average ± SD), Control” value ([2]; 1000 μM) was 5.52 ± 0.21 pmol/mg protein and the “Uptake (Average ± SD), MATE1” value ([2]; 1000 μM) was 379 ± 13 pmol/mg protein. For the same compound, the “Solubility in dilute solutions of sodium carbonate and sodium hydroxide” value [4] was “soluble”, the “% control” value ([5]; inhibitor 1000 μM) was 60.0% and the “Control cells Recovery (%) A:B” value ([5]; dog, MDCK, 120 min, 1000 μM) was 84.7%. For the same compound, the “Control cells Recovery (%) B:A” value ([5]; dog, MDCK, 120 min, 1000 μM) was 77.0%, the “MDCKII-BCRP cells Recovery (%) A:B” value ([5]; human, 120 min, 1000 μM) was 93.0% and the “MDCKII-BCRP cells Recovery (%) B:A” value ([5]; human, 120 min, 1000 μM) was 83.7%. For the same compound, the “Papp A:B of digoxin (Average)” value ([6]; Caco-2) was 0.337 (n = 2) × 10^−6 cm/sec, the “% control” value ([6]; human, 120 min, 3 μM) was 74.0% and the Storage stability [7] was “at least 36 months”.

For `Cc1cccc(C)c1OCC(=O)N[C@@H](Cc1ccccc1)[C@@H](O)C[C@H](Cc1ccccc1)NC(=O)[C@H](C(C)C)N1CCCNC1=O` [Lopinavir], the “% control” value ([5]; inhibitor 30 μM) was 0%.

In the case of `CCc1nc(N)nc(N)c1-c1ccc(Cl)cc1` [Pyrimethamine], the “Background corrected uptake rate” value ([1]; 0.3 μM) is reported as 14.0 pmol/mg/min, the “Uptake (Average ± SD), Control” value ([1]; 0.3 μM) is reported as 5.59 ± 0.88 pmol/mg protein and the “Uptake (Average ± SD), MATE2-K” value ([1]; 0.3 μM) is reported as 75.6 ± 16.7 pmol/mg protein. For the same compound, the “Background corrected uptake rate” value ([2]; 0.1 μM) was 11.7 pmol/mg/min, the “Uptake (Average ± SD), Control” value ([2]; 0.1 μM) was 4.24 ± 0.72 pmol/mg protein and the “Uptake (Average ± SD), MATE1” value ([2]; 0.1 μM) was 62.8 ± 4.0 pmol/mg protein.

For `C=C[C@H]1C[N@@]2CC[C@H]1C[C@@H]2[C@@H](O)c1ccnc2ccc(OC)cc12` [Quinidine], the “Background corrected uptake rate” value ([3]; 100 μM) was 1.64 pmol/mg/min.

For `C/C=C/C[C@@H](C)C(=O)[C@H]1C(=O)N[C@@H](C(C)C)C(=O)N(C)CC(=O)N(C)[C@@H](CC(C)C)C(=O)N[C@@H](C(C)C)C(=O)N(C)[C@@H](CC(C)C)C(=O)N[C@@H](C)C(=O)N[C@H](C)C(=O)N(C)[C@@H](CC(C)C)C(=O)N(C)[C@@H](CC(C)C)C(=O)N(C)[C@@H](C(C)C)C(=O)N1C` [Valspodar], the “Papp A:B of digoxin (Average ± SD)” value [8] was 9.12 ± 1.34 × 10^−6 cm/sec and the “Papp B:A of digoxin (Average ± SD)” value [8] was 10.0 ± 2.5 × 10^−6 cm/sec.
